Test system: Wnt3a-mediated β-catenin signaling in HEK293-TB cells
Type: cell-based

LPSDDAEFWCHVMY [dFz7-21-L6A]
reduction in cellular potency: ~800 fold
